Reference: US11667602B2, “Compounds and their use” (AstraZeneca AB, priority 2020, dated 2023)
In brackets after ≈: the same amount, converted by molar mass.

Legend:
[1] = Human Hepatocyte Stability (Test D); assay type: in vitro ADME; settings: geometric mean if run multiple times; for hepatocyte CLint at 1 µM: human, cryopreserved pooled human hepatocytes (LiverPool 10-Donor)
How it was run: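 Pooled 10-donor cryopreserved human hepatocytes (≥80% viable) in L-15 medium at 0.25×10^6 cells per 0.25 mL well. Compound added from 100 μM acetonitrile solution; incubated at 37 °C with shaking, acetonitrile-quenched, LC-MS analysed. Clint (μL/min/10^6 cells) from ln % parent vs time slope; geometric mean of repeat runs.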

[2] = Rat Hepatocyte Stability (Test E); assay type: in vitro ADME; settings: geometric mean if run multiple times; for hepatocyte CLint: rat, hepatocytes
How it was run: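 Run per the published AstraZeneca-type rat hepatocyte stability protocol (Wernevik et al. panel). Values are mean intrinsic clearance, Clint in μl/min/10^6 cells; geometric mean used for repeated runs.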

[3] = Human Liver Microsomal Stability (Test C); assay type: in vitro ADME; settings: for microsomal CLint: human, liver microsomes
How it was run: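 Human liver microsome incubation per the Wernevik et al. integrated DMPK panel protocol. Intrinsic clearance reported as CLint in μl/min/mg protein, averaged arithmetically over repeat runs.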

human RXFP1 = molecular target: T1, human RXFP1 (Homo sapiens, UniProt Q9HBX9); assay: RXFP1 Hu cAMP (Test A); assay type: cell-based; design: expressed in transfected cells; host or cells: Jump-In T-REx CHO-K1 cells (ThermoFisher), induced with 10 ng/ml doxycycline for 24 h; settings: RXFP1 Hu cAMP; for EC50: read-out: Test A EC50
T1 sequence (Q9HBX9 1-757): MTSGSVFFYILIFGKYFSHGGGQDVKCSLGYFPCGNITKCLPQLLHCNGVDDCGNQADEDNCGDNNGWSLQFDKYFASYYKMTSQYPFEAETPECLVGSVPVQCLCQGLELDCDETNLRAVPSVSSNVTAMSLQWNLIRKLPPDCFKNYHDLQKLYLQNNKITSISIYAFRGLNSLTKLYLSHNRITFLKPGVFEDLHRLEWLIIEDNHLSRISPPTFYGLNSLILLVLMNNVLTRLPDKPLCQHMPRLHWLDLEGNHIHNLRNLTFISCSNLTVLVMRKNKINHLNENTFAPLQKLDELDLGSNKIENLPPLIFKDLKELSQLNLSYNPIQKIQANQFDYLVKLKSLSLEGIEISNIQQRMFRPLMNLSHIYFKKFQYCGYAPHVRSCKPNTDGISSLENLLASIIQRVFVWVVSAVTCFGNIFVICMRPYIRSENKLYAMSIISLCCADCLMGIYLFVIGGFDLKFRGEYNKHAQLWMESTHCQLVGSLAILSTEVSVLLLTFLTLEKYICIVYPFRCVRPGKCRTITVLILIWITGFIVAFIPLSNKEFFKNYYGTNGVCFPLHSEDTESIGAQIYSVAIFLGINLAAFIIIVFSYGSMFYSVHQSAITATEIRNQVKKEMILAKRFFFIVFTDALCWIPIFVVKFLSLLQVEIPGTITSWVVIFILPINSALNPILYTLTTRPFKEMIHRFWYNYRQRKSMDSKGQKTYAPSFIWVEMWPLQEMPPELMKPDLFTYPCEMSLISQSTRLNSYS
How it was run: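 Cells: CHO-K1 stably carrying human RXFP1, expressed after 24 h 10 ng/ml doxycycline; 0.5 mM IBMX final, HTRF detection after 2 h at room temperature.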

Solubility (Test F) = assay type: physicochemical; settings: arithmetic mean if run multiple times
Protocol: The assay was conducted according to the Solubility Assay described in pages 164-167 of Wernevik, J. et al., “A Fully Integrated Assay Panel for Early Drug Metabolism and Pharmacokinetics Profiling”, Assay and Drug Development Technologies, 2020, 18(4), 157-179. Data are reported in Table 36 as solubility ([…]. Where the assay was run multiple times for the same compound, the arithmetic mean is reported.

[4] = Human Plasma Protein Binding (Test B); assay type: in vitro ADME; settings: fraction unbound (fu)
How it was run: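 Human plasma protein binding run per the published Wernevik et al. (2020) integrated DMPK panel protocol. Values are fraction unbound (fu, % free); repeat runs averaged arithmetically.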

Compound	hepatocyte CLint at 1 µM [1] [µL/min/1e6 cells]	hepatocyte CLint [2] [µL/min/1e6 cells]	microsomal CLint [3] [µL/min/mg]	Test A Sinf (human RXFP1) [%]	EC50 (human RXFP1) [nM]	solubility (Solubility (Test F)) [µM]	Test B Human Plasma Protein Binding (% free) [4] [% free]	Test D Human Hepatocyte Stability Clint ([1]; human hepatocytes) [μL/min/10^6 cells]	Test E Rat Hepatocyte Stability Clint ([2]; rat hepatocytes) [μL/min/10^6 cells]	Test C Human Liver Microsomal Stability Clint ([3]; human liver microsomes) [µL/min/mg]
COc1cc(F)c(-c2cccc(C(=O)O)c2)cc1C(=O)N[C@H]1[C@@H](C(=O)Nc2ccc(F)c(S(=O)(=O)C(F)(F)F)c2)[C@@H]2C=C[C@H]1C2 (racemic) [Example 297]	9.4	12	9.1	98	120	8 (≈ 5.2 µg/mL)	<0.33	–	–	–
COc1cc(F)c(O[C@H]2CC[C@@](C)(C(=O)O)CC2)cc1C(=O)N[C@@H]1[C@H]2CC[C@H](C2)[C@@H]1C(=O)NCC(C)(C)C#N [Example 47]	< 1	17	< 3	111	200	> 1000	21	–	–	–
COc1cc(F)c(-c2ccc(C(=O)O)cc2)cc1C(=O)N[C@H]1[C@@H](C(=O)Nc2ccc(F)c(S(=O)(=O)C(F)(F)F)c2)[C@@H]2C=C[C@H]1C2 (racemic) [Example 296, rac-2′-Fluoro-5′-(((1R,2R,3S,4S)-3-((4-fluoro-3-((trifluoromethyl)sulfonyl)phenyl)carbamoyl)bicyclo[2.2.1]hept-5-en-2-yl)carbamoyl)-4′-methoxy-[1,1′-biphenyl]-4-carboxylic acid]	22	17	15	98	220	640 (≈ 416 µg/mL)	<0.32	–	–	–
COc1cc(Cl)c(O[C@H]2CC[C@@](C)(C(=O)O)CC2)cc1C(=O)N[C@@H]1[C@H]2CC[C@H](C2)[C@@H]1C(=O)NCC(C)(C)C [Example 412]	2.6	24	13	110	37	930 (≈ 511 µg/mL)	5.3	–	–	–
COc1cc(F)c(O[C@H]2CC[C@@](C)(C(=O)O)CC2)cc1C(=O)N[C@H]1C[C@@H](OC)C[C@H]1C(=O)Nc1cccc(S(=O)(=O)C(F)(F)F)c1 (stereo in doubt) [Example 523, (1R,4s)-4-(2-fluoro-4-methoxy-5-(((1S*,2R*,4S*)-4-methoxy-2-((3-((trifluoromethyl)sulfonyl)phenyl)carbamoyl)cyclopentyl)carbamoyl)phenoxy)-1-methylcyclohexane-1-carboxylic acid]	–	–	–	95	270	920 (≈ 621 µg/mL)	4	49	34	>300
COc1cc(C#N)c(O[C@H]2CC[C@@](C)(C(=O)O)CC2)cc1C(=O)N[C@@H]1[C@H]2CC[C@H](C2)[C@@H]1C(=O)NC(C)(C)C [Example 99]	< 1	11	6.2	113	140	920 (≈ 484 µg/mL)	20	–	–	–
COc1cc(F)c(O[C@H]2CC[C@@](C)(C(=O)O)CC2)cc1C(=O)N[C@@H]1[C@H]2CC[C@H](C2)[C@@H]1C(=O)NC12CC(F)(C1)C2 [Example 608]	3.4	8.2	20	115	75	880 (≈ 481 µg/mL)	3.5	–	–	–
COc1cc(F)c(O[C@H]2CC[C@@](C)(C(=O)O)CC2)cc1C(=O)Nc1ccc(C)cc1C(=O)NCC1(C)CCC1 [Example 216, (1s,4s)-4-(2-Fluoro-4-methoxy-5-((4-methyl-2-(((1-methylcyclobutyl)methyl)-carbamoyl)phenyl)carbamoyl)phenoxy)-1-methylcyclohexane-1-carboxylic acid]	4.2	19	< 3	132	210	3.1 (≈ 1.68 µg/mL)	0.64	–	–	–
COc1cc(F)c(O[C@H]2CC[C@@](C)(C(=O)O)CC2)cc1C(=O)N[C@H]1[C@@H](C(=O)NCC2(C)CCC2)[C@@H]2C=C[C@H]1C2 [Example 417]	5.1	17	24	102	9.8	900 (≈ 488 µg/mL)	4.8	–	–	–

More lines, main results first:

hepatocyte CLint at 1 µM [1] [µL/min/1e6 cells]	hepatocyte CLint [2] [µL/min/1e6 cells]	microsomal CLint [3] [µL/min/mg]	Test A Sinf (human RXFP1) [%]	EC50 (human RXFP1) [nM]	solubility (Solubility (Test F)) [µM]	Test B Human Plasma Protein Binding (% free) [4] [% free]	Compound	Test D Human Hepatocyte Stability Clint ([1]; human hepatocytes) [μL/min/10^6 cells]	Test E Rat Hepatocyte Stability Clint ([2]; rat hepatocytes) [μL/min/10^6 cells]	Test C Human Liver Microsomal Stability Clint ([3]; human liver microsomes) [µL/min/mg]
8	4.6	65	114	110	8 (≈ 5.58 µg/mL)	<0.35	COc1cc(F)c(-c2ccc(CCS(N)(=O)=O)cc2)cc1C(=O)N[C@H]1[C@H]2CC[C@H](C2)[C@H]1C(=O)Nc1cccc(S(=O)(=O)C(F)(F)F)c1 (single isomer, unassigned) [Example 326]	–	–	–
5	21	5.1	107	–	24 (≈ 16.1 µg/mL)	<0.32	COc1cc(F)c(-c2ccc(C3(C(=O)O)CC3)cc2)cc1C(=O)N[C@H]1[C@@H](C(=O)Nc2cccc(S(=O)(=O)C(F)(F)F)c2)[C@@H]2C=C[C@H]1C2 (racemic) [Example 288]	–	–	–
18	78	56	112	11	> 1000	1.5	COC[C@]1(C(=O)O)CC[C@@H](Oc2cc(C(=O)N[C@@H]3[C@H]4CC[C@H](C4)[C@@H]3C(=O)Nc3cccc(S(=O)(=O)C(F)(F)F)c3)c(OC)cc2F)CC1 [Example 482]	–	–	–
11	16	12	105	300	870 (≈ 576 µg/mL)	0.62	COc1cc(-c2cc(C(=O)N[C@H]3[C@@H](C(=O)Nc4cccc(S(=O)(=O)C(F)(F)F)c4)[C@@H]4C=C[C@H]3C4)c(OC)cc2F)ccc1C(=O)O (racemic) [Example 226, rac-2′-Fluoro-3,4′-dimethoxy-5′-(((1R,2R,3S,4S)-3-((3-((trifluoromethyl)sulfonyl)phenyl)carbamoyl)bicyclo[2.2.1]hept-5-en-2-yl)carbamoyl)-[1,1′-biphenyl]-4-carboxylic acid]	–	–	–
30	35	65	106	120	> 1000	1.7	COc1cc(F)c(-c2ccc(CCC(=O)O)nc2)cc1C(=O)N[C@@H]1[C@H]2CC[C@H](C2)[C@@H]1C(=O)Nc1cccc(S(=O)(=O)C(F)(F)F)c1 [Example 258, 3-(5-(2-Fluoro-4-methoxy-5-(((1S,2R,3S,4R)-3-((3-((trifluoromethyl)sulfonyl)phenyl)carbamoyl)bicyclo[2.2.1]heptan-2-yl)carbamoyl)phenyl)pyridin-2-yl)propanoic acid]	–	–	–
